Results from patent publication US20250099420A1, “SMALL MOLECULE MODULATORS OF GPR139 COMPLEX” (University of Florida Research Foundation, Incorporated, priority 2022, published 2025).
Where two headings read alike, the source gives them in different places.

Columns and labels:
GPR139 = target: T1, GPR139 (Homo sapiens, UniProt Q6DWJ6); experiment: GPR139 Agonist titration / agonist counterscreen assay (calcium detection, HEK-GPR139 cells); type: cell-based; design: expressed in transfected cells; host or cells: HEK Aequorin cells, Maxcyte transient transfection; conditions: GPR139 Agonist Activity; for EC50: read-out: EC50; for Averaged Max % Response (±St. Dev.): activity relative to known control
T1 sequence (Q6DWJ6 1-353): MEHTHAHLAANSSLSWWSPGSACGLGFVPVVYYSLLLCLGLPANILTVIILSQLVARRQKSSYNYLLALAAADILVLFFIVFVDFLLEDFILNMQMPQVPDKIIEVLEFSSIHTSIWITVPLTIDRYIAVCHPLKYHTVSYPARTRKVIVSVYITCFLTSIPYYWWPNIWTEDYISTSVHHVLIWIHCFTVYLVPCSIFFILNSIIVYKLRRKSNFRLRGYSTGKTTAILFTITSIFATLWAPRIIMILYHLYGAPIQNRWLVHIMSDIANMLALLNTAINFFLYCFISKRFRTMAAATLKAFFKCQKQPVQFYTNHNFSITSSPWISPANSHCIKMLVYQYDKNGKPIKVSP
Description: GPR activity was assessed using a calcium detection assay. […] Negative control samples were treated with DMSO. […] Intracellular calcium was measured using Calcium 5.

parental HEK cells = experiment: HEK parental Agonist Counterscreen Assay (non-transfected cells); type: cell-based; conditions: for Averaged Max % Response (±St. Dev.): activity relative to known control
From the text: The high control for the agonist counterscreen was Forskolin not acetylcholine.

[1] = Homo sapiens, HEK293, HEK Agonist Activity section of Table 4 (parental HEK counterscreen)
[2] = values printed in E-notation without unit
[3] = Homo sapiens, HEK293, HEK Agonist Activity, parental non-transfected HEK cells
[4] = HEK Agonist Activity section of Table 4 (parental HEK counterscreen)

SMILES | Efficiency Ligand (GPR139) | Hill Slope (GPR139) | Lipophilic Efficiency (logD) (GPR139) | Lipophilic Efficiency (logP) (GPR139) | EC50 (GPR139; HEK-GPR139 cells) | Averaged Max % Response (±St. Dev.) (GPR139) | Lipophilic Efficiency (logD) (parental HEK cells; HEK Agonist Activity section) | Lipophilic Efficiency (logP) (parental HEK cells; HEK Agonist Activity section) | Lipophilic Efficiency (logD) (GPR139; based on logD) | Lipophilic Efficiency (logP) (GPR139; based on logP) | Hill Slope (GPR139; fitted dose-response curve) | Efficiency Ligand (GPR139; ligand efficiency) | EC50 (GPR139; [2]) | Lipophilic Efficiency (logD) (parental HEK cells; HEK Agonist Activity) | Lipophilic Efficiency (logP) (parental HEK cells; HEK Agonist Activity) | Averaged Max % Response (±St. Dev.) (parental HEK cells; HEK Agonist Activity section) | EC50 (parental HEK cells; [1]) | Averaged Max % Response (±St. Dev.) (parental HEK cells; HEK Agonist Activity) | EC50 (parental HEK cells; [3]) | EC50 (parental HEK cells; [4])
O=C(Nc1ccc(-c2c[nH]cn2)cc1)C1COc2ccc(F)cc2C1 (stereo not shown) [SR-00000004710] | 0.35 | 0.90 | 3.12 | 3.11 | 477 nM | 89.55 ± 3.66% | 1.65 | 1.64 | – | – | – | – | – | – | – | −8.04 ± 14.30% | > 14.1 µM | – | – | –
O=C(CCC(=O)c1ccco1)NNC(=O)CN1CCCc2ccccc21 [SR-01000068721] | – | – | – | – | – | 109.68 ± 5.18% | – | – | 5.32 | 5.32 | 0.71 | 0.40 | 34.7 nM | 2.68 | 2.68 | – | – | 8.82 ± 10.34% | > 15.2 µM | –
COc1cc(C(C)=O)ccc1OCC(=O)OCC(=O)NCCCc1ccccc1 [SR-01000056458] | – | – | – | – | – | 119.47 ± 9.11% | 2.66 | 2.66 | 5.10 | 5.10 | 0.52 | 0.35 | 50.9 nM | – | – | 19.25 ± 6.92% | > 14.1 µM | – | – | –
Nc1ccc(C(=O)OCC(=O)NC2CCCc3ccccc32)cc1[N+](=O)[O-] (stereo not shown) [SR-01000034627] | – | – | – | – | – | 64.98 ± 9.75% | 1.47 | 1.47 | 3.27 | 3.27 | 2.03 | 0.34 | 245 nM | – | – | 2.09 ± 12.58% | > 15.3 µM | – | – | –
Cc1ccc(SCC(=O)Nc2nnc(-c3ccco3)o2)cc1 [SR-01000021414] | – | – | – | – | – | 97.10 ± 8.84% | 2.38 | 2.38 | 4.46 | 4.46 | 0.83 | 0.44 | 119 nM | – | – | 22.31 ± 11.03% | – | – | – | > 14.3 µM
Cc1ccc(CCNC(=O)Cn2nc(-c3ccccc3)ccc2=O)cc1 [SR-01000145157] | – | – | – | – | – | 83.58 ± 17.45% | 1.85 | 1.85 | 3.85 | 3.85 | 0.58 | 0.37 | 140 nM | – | – | 17.61 ± 4.99% | – | – | – | > 14.1 µM
O=C(NCCn1ccc2ccccc21)c1cccs1 [SR-01000124129] | – | – | – | – | – | 84.79 ± 6.25% | 1.77 | 1.77 | 3.83 | 3.83 | 0.88 | 0.51 | 123 nM | – | – | −9.08 ± 5.27% | > 14.1 µM | – | – | –
CCc1nn(CC(=O)NCc2cccc(Br)c2)c(=O)c2cc3occc3n12 [SR-01000099472] | – | – | – | – | – | 105.06 ± 17.21% | – | – | 5.32 | 5.32 | 0.88 | 0.39 | 26.3 nM | 2.60 | 2.60 | – | – | 10.79 ± 6.86% | > 14.1 µM | –
Cc1cccc(Cc2cnc(NC(=O)CC(C)C)s2)c1 [SR-01000071221] | – | – | – | – | – | 129.99 ± 9.49% | – | – | 2.68 | 2.68 | 1.13 | 0.52 | 39.6 nM | 0.08 | 0.08 | – | – | 19.19 ± 7.12% | > 15.6 µM | –
O=C(CN1C(=O)NC2(CCc3ccccc3C2)C1=O)N1CCc2ccccc2C1 (stereo not shown) [SR-01000062726] | – | – | – | – | – | 103.63 ± 9.70% | 2.40 | 2.40 | 4.25 | 4.25 | 0.89 | 0.32 | 205 nM | – | – | −12.60 ± 9.55% | > 14.5 µM | – | – | –
CN(C)C(CNC(=O)Nc1ccc(Cl)c(Cl)c1)c1cccnc1 (stereo not shown) [SR-01000127953] | – | – | – | – | – | 96.92 ± 13.57% | 2.35 | 1.96 | 4.13 | 3.73 | 0.56 | 0.40 | 236 nM | – | – | 10.89 ± 5.56% | > 14.1 µM | – | – | –
COc1cc(C(C)=O)ccc1OCC(=O)NC(C)CCc1ccccc1 (stereo not shown) [SR-01000048295] | – | – | – | – | – | 102.89 ± 3.61% | – | – | 4.43 | 4.43 | 0.88 | 0.40 | 38.3 nM | 1.86 | 1.86 | – | – | 7.53 ± 4.49% | > 14.3 µM | –
COc1cccc(CNC(=O)Nc2ccc(-c3ccncc3)cc2)c1.O=C(O)C(F)(F)F [SR-00000007266] | 0.36 | 1.16 | 3.29 | 3.29 | 408 nM | 100.59 ± 15.12% | 1.76 | 1.75 | – | – | – | – | – | – | – | 23.72 ± 3.44% | – | – | – | > 14.1 µM

Further lines, with some results ahead:

Efficiency Ligand (GPR139) | Hill Slope (GPR139) | Lipophilic Efficiency (logD) (GPR139) | Lipophilic Efficiency (logP) (GPR139) | EC50 (GPR139; HEK-GPR139 cells) | Averaged Max % Response (±St. Dev.) (GPR139) | Lipophilic Efficiency (logD) (parental HEK cells; HEK Agonist Activity section) | Lipophilic Efficiency (logP) (parental HEK cells; HEK Agonist Activity section) | Lipophilic Efficiency (logD) (GPR139; based on logD) | Lipophilic Efficiency (logP) (GPR139; based on logP) | Hill Slope (GPR139; fitted dose-response curve) | Efficiency Ligand (GPR139; ligand efficiency) | EC50 (GPR139; [2]) | Lipophilic Efficiency (logD) (parental HEK cells; HEK Agonist Activity) | Lipophilic Efficiency (logP) (parental HEK cells; HEK Agonist Activity) | SMILES | Averaged Max % Response (±St. Dev.) (parental HEK cells; HEK Agonist Activity section) | EC50 (parental HEK cells; [1]) | Averaged Max % Response (±St. Dev.) (parental HEK cells; HEK Agonist Activity) | EC50 (parental HEK cells; [3]) | EC50 (parental HEK cells; [4])
– | – | – | – | – | 100.43 ± 4.95% | – | – | 4.82 | 4.81 | 0.91 | 0.38 | 6.7 nM | 1.49 | 1.48 | Cc1onc(-c2ccccc2Cl)c1C(=O)NNC(=O)CSc1ccccc1[N+](=O)[O-] [SR-01000633083] | – | – | 21.09 ± 6.01% | > 14.1 µM | –
0.32 | 0.90 | 3.07 | 3.07 | 354 nM | 97.42 ± 13.41% | 1.47 | 1.47 | – | – | – | – | – | – | – | CC(C(=O)NCCn1nnn(-c2ccccc2)c1=O)n1nc2ccccc2n1 (stereo not shown) [SR-01000373848] | 7.32 ± 0.96% | – | – | – | > 14.1 µM
– | – | – | – | – | 100.19 ± 16.30% | – | – | 5.01 | 4.07 | 1.02 | 0.46 | 33.5 nM | 2.39 | 1.45 | Cc1ccc(S(=O)(=O)NC(=O)NC(C)Cc2ccccc2)cc1 (stereo not shown) [SR-01000362293] | – | – | −7.08 ± 3.92% | > 14.1 µM | –
0.34 | 0.88 | 1.94 | 1.94 | 2300 nM | 80.96 ± 18.51% | 1.05 | 1.05 | – | – | – | – | – | – | – | Cc1c(Cl)c(C(F)(F)F)nn1CC(=O)NCc1ccc(Cl)cc1 [SR-01000429212] | −31.95 ± 8.26% | > 18 µM | – | – | –
0.36 | 0.84 | 3.11 | 3.11 | 437 nM | 109.12 ± 32.80% | 1.48 | 1.48 | – | – | – | – | – | – | – | CCN(Cc1ccccc1)C(=O)Cn1cnc2sc(O)c(C)c2c1=O [SR-01000468553] | 35.00 ± 2.11% | > 18.5 µM | – | – | –
0.28 | 0.89 | 1.82 | 1.82 | 1900 nM | 114.96 ± 19.78% | 0.89 | 0.89 | – | – | – | – | – | – | – | Cc1ccc(NC(=O)CSC2=C(C#N)C(c3ccc(F)cc3)CC(=O)N2)c(C)c1 (stereo not shown) [SR-01000484494] | 14.09 ± 3.35% | – | – | – | > 16 µM
